From US11229633B2, “Arimoclomol formulation” (Orphazyme A/S, priority 2014, dated 2022)
Entries after “also recorded” stand apart in the source; their conditions may differ.

Key:
OATP1B3 = molecular target: T1, OATP1B3 (Homo sapiens, UniProt Q9NPD5); test: Uptake transporter inhibition assay, OATP1B3; assay type: in vitro ADME; design: expressed in transfected cells; host or cells: CHO (protocol UPT-CHO-OATP1B3-Fluo3; control: parental CHO-K1; 5 mM Na+ butyrate induction); key to maximum inhibition: NIO: No interaction observed; conditions: for maximum inhibition: 0.3-300 μM
T1 sequence (Q9NPD5 1-702): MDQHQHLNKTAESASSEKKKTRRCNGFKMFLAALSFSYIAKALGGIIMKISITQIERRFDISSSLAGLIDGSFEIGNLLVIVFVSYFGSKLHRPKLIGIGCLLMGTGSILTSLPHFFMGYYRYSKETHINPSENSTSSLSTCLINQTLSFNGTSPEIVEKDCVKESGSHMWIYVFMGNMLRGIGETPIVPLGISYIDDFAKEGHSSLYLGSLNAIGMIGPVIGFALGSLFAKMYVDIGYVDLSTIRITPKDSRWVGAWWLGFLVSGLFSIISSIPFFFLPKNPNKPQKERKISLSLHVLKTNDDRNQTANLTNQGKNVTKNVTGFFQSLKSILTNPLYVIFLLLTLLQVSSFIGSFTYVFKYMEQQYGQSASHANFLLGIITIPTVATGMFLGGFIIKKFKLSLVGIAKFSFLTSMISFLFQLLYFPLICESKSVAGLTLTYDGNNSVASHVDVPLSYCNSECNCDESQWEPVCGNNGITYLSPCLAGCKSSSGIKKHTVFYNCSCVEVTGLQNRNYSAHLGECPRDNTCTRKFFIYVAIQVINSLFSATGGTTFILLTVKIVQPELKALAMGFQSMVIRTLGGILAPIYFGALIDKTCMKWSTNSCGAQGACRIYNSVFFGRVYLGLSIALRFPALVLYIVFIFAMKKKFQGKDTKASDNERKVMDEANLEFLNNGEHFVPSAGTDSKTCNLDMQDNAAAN
Procedure: Uptake experiments were performed using CHO, MDCKII, or HEK293 cells stably expressing the respective uptake transporters.
Cells were cultured at 37±1° C. in an atmosphere of 95:5 air:CO2 and were plated onto standard 96-well tissue culture plates at the cell number described in table 4.
Before the experiment, the medium was removed and the cells were washed twice with 100 μl of HK buffer at pH 7.4 (prepared from Sigma chemicals, Sigma-Aldrich, St Louis, Mo.). Uptake experiments were carried out at 37±1° C. in 50 μl of HK buffer (pH 7.4) containing the probe substrate and the TA or vehicle control (water).
After the experiment, cells were washed twice with ice cold, 100 μl of HK buffer and lysed with 50 μl of 0.1 M NaOH (1 mM CaCl2) in 5% SDS in the case of OATP1B3). Fluo-3 transport (OATP1B3) was determined by measuring fluorescence using 485 nm and 520 nm as the excitation and emission wavelengths, respectively. Radiolabelled probe substrate transport was determined by measuring an aliquot (35 μl) from each well for liquid scintillation counting.
Uptake of the probe substrate in control cells provided background activity values for all data points. Incubation without TA or reference inhibitor (solvent only) provided 100% activity values. A reference inhibitor served as positive control for inhibition.
The amount of translocated probe substrate was determined for each well in cpm or RFU. Relative activities were calculated from the equation:
[formula] A: amount of translocated substrate in the presence of TA in transfected cells B: amount of translocated substrate in the presence of TA in control cells C: amount of translocated substrate in the presence of solvent in transfected cells D: amount of translocated substrate in the presence of solvent in control cells Calculation of Fold Accumulation Values
In uptake transporter inhibition assays, the IC50 (μM) was calculated, where applicable. […]

[1] = Solubility of test article in water and methanol; assay type: physicochemical; conditions: 25° C.

Compound: [O-][n+]1cccc(C(Cl)=NOCC(O)CN2CCCCC2)c1 (centres unmarked) [Arimoclomol, N-[2-hydroxy-3-(1-piperidinyl)-propoxy]-pyridine-1-oxide-3-carboximidoyl chloride]
- maximum inhibition (OATP1B3; Table 2): NIO
- maximum inhibition (OATP1B3; Table 5): NIO
- Influence on OATP1B3-mediated probe substrate accumulation (in words) (OATP1B3; applied concentrations): did not influence; also recorded: not an inhibitor
- Solubility ([1]; methanol): 0.4 g/100 mL
- Solubility ([1]; water): 14 g/100 mL
